# Measurements reported in patent US20090124634A1, “Novel dipodazine compounds and applications” (Viogard AB, priority 2005, published 2009).
# Marks after values point to notes of the source that are not given here.
# Experiments:
# B. improvisus = assay: Field experiment, paint-coated panels in sea water: recruitment/settlement of B. improvisus; assay type: in vivo, Balanus improvisus; details: for Reduction of recruitment (%): B. improvisus; for reduction of settlement of B. Improvisus: panels eight weeks in sea water, 0.2-1.5 m depth (FIG. 1)
# Description: (§1) The effects of barettin and 8,9-Dihydrobarettin on B. improvisus recruitment was studied, by formulating different paints with different concentrations of the active substances.
# (§2) The paints were commercially available paints and the four different paints are listed below:
# One compound according to the present invention, benzo[g]dipodazine, which is the at present preferred compound, was formulated in a commercially available paint (SPF, from Lotréc, Lidingö, Sweden). The concentration of benzo[g]dipodazine in the paint was 0.1% and 0.01% based on the weight of the paint.
# The paint was coated on panels in the same way as described above in Example 1 (comparative example). A control panel was coated with the same paint without benzo[g]dipodazine. All panels were immersed in sea water at a depth of 0.2-1.5 m, and maintained in the water for eight weeks.
# [1] = tested on: cyprids larvae of B. improvisus; details: B. improvisus cypris larvae, from ref [27], cited from earlier work; for EC50: read-out: EC50, inhibition of settlement of cypris larvae
# M. edulis = assay: Field experiment, paint-coated panels in sea water: recruitment of M. edulis; assay type: in vivo, Mytilus edulis
# Description: as §1, §2
# Also, the effects of barettin and 8,9-dihydrobarettin on M. edulis recruitment were studied. When analyzing the data on the recruitment of M. edulis in the present field experiment, in a 3-factor analysis of variance with substance, paint and concentration as fixed factors, there was a significant interaction between the factors substance and paint. The main contribution to the significant interaction between the factors substance and paint is the result of barettin in combination with the SPF paint. […] However, the SNK-test could not reveal any significant differences between data.
# [2] = tested on: cyprids larvae of B. improvisus; assay: Larval settlement assay (barnacle cyprids in dishes), incl. reversibility test; assay type: in vivo, Balanus improvisus
# Experimental: Barnacle cyprids larvae of B. improvisus was reared in the laboratory as described in [2]. The settlement propensity and mortality of barnacle cyprids were used to evaluate the bioactive effect of barettin and analogues. Stock solutions of all compounds shown in FIG. 4 were prepared by dissolving the compounds in dimethylsulfoxide (DMSO). The stock solutions were further diluted in filtered seawater (FSW, Millipore 0.2 μm) to yield the desired concentrations of 1×10^−4, 1×10^−3 and 1×10^−2 mg ml^−1. The settlement assays were performed using Petri dishes of untreated polystyrene (Nunc no 240045, Ø 48 mm) containing 10 ml of FSW to which 20±5 cyprids were added. Cyprids were used on their first or second day after moulting. Each treatment with a specific analogue was replicated 4 times and dishes with FSW only or FSW containing DMSO (0.1%) served as controls. Dishes were maintained for 3-4 days at room temperature (21±2° C.) in the prevailing light:dark cycle of 9:15 h. The effects of the different analogues, classified as either neutral, stimulatory or inhibitory, on the cyprids, were determined by examining the dishes under a stereo microscope and checking for 1) attached and metamorphosed individuals, 2) non-metamorphosed, alive, non-attached cyprids and 3) dead cyprids. Each substance was tested at least in two independent experimental series. […]
# [3] = FabiEco paint, 0.01% in paint, listed as 8,9-dihydro-barettin
# [4] = FabiEco paint, 0.1% in paint, listed as 8,9-dihydro-barettin
# [5] = SPF paint, 0.01% in paint, vs control panels
# [6] = SPF paint, 0.1% in paint, vs control panels
# [7] = SPF paint, 0.01% in paint, 8-week period
# [8] = SPF paint, 0.1% in paint, 8-week period
Structure (SMILES),"Reduction of recruitment (%) (B. improvisus; FabiEco paint, 0.01% in paint)","Reduction of recruitment (%) (B. improvisus; FabiEco paint, 0.1% in paint)","Reduction of recruitment (%) (B. improvisus; H2000 paint, 0.01% in paint)","Reduction of recruitment (%) (B. improvisus; H2000 paint, 0.1% in paint)",Reduction of recruitment (%) (B. improvisus; [5]),Reduction of recruitment (%) (B. improvisus; [6]),"Reduction of recruitment (%) (B. improvisus; TF paint, 0.01% in paint)","Reduction of recruitment (%) (B. improvisus; TF paint, 0.1% in paint)",effect on larval mortality [1],EC50 [1] [µM],"Reduction of recruitment (%) (M. edulis; FabiEco paint, 0.01% in paint)","Reduction of recruitment (%) (M. edulis; FabiEco paint, 0.1% in paint)","Reduction of recruitment (%) (M. edulis; H2000 paint, 0.01% in paint)","Reduction of recruitment (%) (M. edulis; H2000 paint, 0.1% in paint)",Reduction of recruitment (%) (M. edulis; [7]),Reduction of recruitment (%) (M. edulis; [8]),"Reduction of recruitment (%) (M. edulis; TF paint, 0.01% in paint)","Reduction of recruitment (%) (M. edulis; TF paint, 0.1% in paint)",also measured
"N=C(N)NCCC[C@@H]1NC(=O)[C@H](Cc2c[nH]c3cc(Br)ccc23)NC1=O [8,9-dihydrobarettin]",59,69,46,20,43,61,−10,−1,none of the compounds displayed any significant effect on larval mortality,7.9,50,67,53,39,52,72,−28%,3.8,"Reduction of recruitment (%) (B. improvisus; [3]): 59* %; Reduction of recruitment (%) (B. improvisus; [4]): 69*** %; Reduction of recruitment (%) (B. improvisus; SPF paint, 0.1% in paint, vs control panels, listed as 8,9-dihydro-barettin): 61** %; Reduction of recruitment (%) (M. edulis; [3]): 50* %; Reduction of recruitment (%) (M. edulis; [4]): 67** %; Reduction of recruitment (%) (M. edulis; H2000 paint, 0.01% in paint, listed as 8,9-dihydro-barettin): 53* %; Reduction of recruitment (%) (M. edulis; SPF paint, 0.1% in paint, 8-week period, listed as 8,9-dihydro-barettin): 72** %"
N=C(N)NCCC[C@@H]1NC(=O)/C(=C/c2c[nH]c3cc(Br)ccc23)NC1=O [barettin],45,49,28,23,67,89,25,17,none of the compounds displayed any significant effect on larval mortality,0.9,51,47,26,12,83,81,51* %,6,"Reduction of recruitment (%) (M. edulis; TF paint, 0.01% in paint, listed as Barettin): 51%"
O=C1CNC(=O)/C(=C/c2c[nH]c3c2ccc2ccccc23)N1 [benzo[g]dipodazine],–,–,–,–,–,–,–,–,–,–,–,–,–,–,–,–,–,–,"reduction of settlement of B. Improvisus (B. improvisus; SPF paint, 0.01% by weight of paint): about 73%; reduction of settlement of B. Improvisus (B. improvisus; SPF paint, 0.1% by weight of paint): about 85%; inhibition of settlement of cyprids ([2]; 34 μM in dishes (FIG. 2A)): complete inhibition; reversibility: ability of cyprids to settle again in fresh seawater after exposure ([2]; totally inhibited cyprids transferred to fresh sea water (FSW) (FIG. 2B)): regained this capability when transferred to fresh sea water"
"O=C1CNC(=O)C(=Cc2cc3ccccc3s2)N1 [compound 12, 3-[1-benzothiophen-2-yl-methylidene]-piperazine-2,5-dione]",–,–,–,–,–,–,–,–,–,–,–,–,–,–,–,–,–,–,melting point: 258 °C
